Source: patent US20240368232A1, “ANTIVIRAL LARAZOTIDE DERIVATIVES” (priority 2021, published 2024)
“And” between values parts separate entries of the source, which are not always exact repeats. Equal entries are not always repeated. Where two headings read alike, the source gives them in different places. Square brackets hold non-standard residues; d marks the D form. Peptide text beside a SMILES is read from it. * marks the point of attachment. ξ: configuration not given here. ξTic = O=C(O)C1Cc2ccccc2CN1; ξY = NC(Cc1ccc(O)cc1)C(=O)O; Heptanoyl = CCCCCCC(=O)*; Boc = CC(C)(C)OC(=O)*

Columns and labels:
[1] = target: M^pro enzyme (Severe acute respiratory syndrome coronavirus 2, UniProt P0DTD1); conditions: MM-GBSA, literature Di Micco et al. 2021; cited from earlier work
[2] = test system: cytomegalovirus (HCMV) Davis strain; conditions: read-out: Antiviral activity EC50 Davis strain; HCMV in HEL cells; plaque formation reduced by 50%; 100 PFU
[3] = in vitro; conditions: African green monkey
[4] = test system: TK^+ VZV strain OKA; conditions: read-out: Antiviral activity EC50 TK^+ VZV strain OKA; VZV in HEL cells; plaque formation reduced by 50%; 20 PFU
[5] = test system: cytomegalovirus (HCMV) AD-169 strain; conditions: read-out: Antiviral activity EC50 AD-169 strain; HCMV in HEL cells; plaque formation reduced by 50%; 100 PFU
[6] = test system: TK^− VZV strain 07-1; conditions: read-out: Antiviral activity EC50 TK^− VZV strain 07-1.; VZV in HEL cells; plaque formation reduced by 50%; 20 PFU
[7] = test system: human embryonic lung (HEL) cells; assay: Cytotoxicity, cell morphology (MCC), HEL cells; assay type: cell-based
[8] = test system: cytomegalovirus (HCMV) AD-169 strain; assay: microbe, parasite or virus in culture; conditions: Human betaherpesvirus 5, AD169, HEL, read-out: Antiviral activity EC50 AD-169 strain, HCMV in HEL cells; plaque formation reduced by 50%; 100 PFU
[9] = test system: Vero cells; assay type: cell-based
[10] = test system: SARS-COV-2 UK (NVDBB) strain
[11] = test system: Vero cells
[12] = test system: SARS-COV-2 1074 # 2 strain
[13] = target: T1, SARS-COV-2 M^pro (3264-3569aa) (Severe acute respiratory syndrome coronavirus 2, UniProt P0DTD1); assay: FRET assay for TRIP on SARS-COV-2 main protease; assay type: biochemical
T1 construct: SARS-COV-2 M^pro (3264-3569aa); purchased Proteros WTH_20_1

[14] = test system: SARS-COV-2 UK (NVDBB) strain; assay: microbe, parasite or virus in culture; conditions: Severe acute respiratory syndrome coronavirus 2, Vero, read-out: Antiviral activity EC50 UK (NVDBB) strain Vero cells
[15] = test system: SARS-COV-2 1074 # 2 strain; assay: microbe, parasite or virus in culture; conditions: Severe acute respiratory syndrome coronavirus 2, Vero, read-out: Antiviral activity EC50 1074 # 2 strain Vero cells
[16] = test system: TK^+ VZV strain OKA; assay: microbe, parasite or virus in culture; conditions: Human alphaherpesvirus 3, HEL, read-out: Antiviral activity EC50 TK^+ VZV strain OKA, VZV in HEL cells; plaque formation reduced by 50%; 20 PFU
[17] = test system: TK^− VZV strain 07-1; assay: microbe, parasite or virus in culture; conditions: Human alphaherpesvirus 3, HEL, read-out: Antiviral activity EC50 TK^− VZV strain 07-1., VZV in HEL cells; plaque formation reduced by 50%; 20 PFU

Row | Molecule | EC50 [4] | EC50 [5] | EC50 [6] | Cytotoxicity Cell morphology (MCC) ([7]; Table 3 (HCMV experiment)) | Cytotoxicity Cell morphology (MCC) ([7]; Table 4 (VZV experiment)) | IC50 [13] | other results
1 | larazotide acetate [AT1001 acetate] |  |  |  |  |  |  | docking in the catalytic domain of the M^pro enzyme [1]: docks extremely well
2 | CCCCCCC(=O)NCC(=O)N[C@H](Cc1ccccc1)C(=O)N[C@H](C=O)Cc1c[nH]cn1 [TRIP 44] (Heptanoyl-Gly-[dF]-His-aldehyde) | > 100 µM | > 20 µM | > 100 µM | 100 μM | >100 μM |  | EC50 [2]: > 100 µM; CC50 [3]: > 100 µM
3 | Nc1ccn(C[C@@H](CO)OCP(=O)(O)O)c(=O)n1 [Cidofovir (CDV), Cidofovir, reference compound] |  | 1.08 µM |  | 317 μM |  |  | EC50 [8]: 1.39 µM
4 | NC(=O)c1nc(F)cnc1O [T-705, reference compound] |  |  |  |  |  |  | Cytotoxicity Cell morphology (MCC) [9]: >200 μg/ml; Antiviral activity EC50 UK (NVDBB) strain Vero cells [10]: 23.39 µg/mL; Cytotoxicity Cell growth (CC50) [11]: >200 µg/mL; Antiviral activity EC50 1074 # 2 strain Vero cells [12]: 76.15 µg/mL and 81.79 µg/mL
5 | CC(=O)NCC(=O)NC(Cc1ccc(O)cc1)C(=O)N[C@H](C=O)Cc1c[nH]cn1 (stereo partly drawn) [TRIP 23] (Ac-Gly-[ξY]-His-aldehyde) |  |  |  |  |  | 198 µM | 
6 | CCC(CC)COC(=O)[C@H](C)N[P@](=O)(OC[C@H]1O[C@@](C#N)(c2ccc3c(N)ncnn23)[C@H](O)[C@@H]1O)Oc1ccccc1 [Remdesivir] |  |  |  |  |  |  | EC50 [14]: 0.19 µM; CC50 ([3]; Cytotoxicity Cell growth (CC50)): > 80 µM; EC50 [15]: 1.01 µM; CC50 ([11]; African green monkey): 59.1 µM; EC50 ([12]; read-out: Antiviral activity EC50 1074 # 2 strain Vero cells): 1.17 µM
7 | CC(C)C[C@H](C=O)NC(=O)[C@H](Cc1ccccc1)NC(=O)C1Cc2ccccc2CN1 (stereo partly drawn) [TRIP 3] (H-[ξTic]-Phe-[dL]-aldehyde) |  |  |  |  |  | > 425 µM | 
8 | O=c1[nH]c(=O)n([C@H]2C[C@H](O)[C@@H](CO)O2)cc1/C=C/Br [Brivudine (BVDU), Brivudine, reference compound] | 0.17 µM |  | 4.53 µM |  | >300.3 μM |  | EC50 [16]: 0.27 µM; EC50 [17]: 5.89 µM
9 | CC(=O)NCC(=O)N[C@@H](Cc1ccccc1)C(=O)N[C@H](Cc1c[nH]cn1)C(=O)NCC=O [TRIP 42] (Ac-GF[dH]G-aldehyde) |  |  |  |  |  | > 425 µM | 
10 | CC(=O)NCC(=O)N[C@H](Cc1ccccc1)C(=O)N[C@H](C=O)Cc1c[nH]cn1 [TRIP 5] (Ac-Gly-[dF]-His-aldehyde) | > 100 µM | > 20 µM | > 100 µM | 100 μM | >100 μM | 2.51 ± 0.24 µM | EC50 [2]: > 100 µM; Kd [13]: 1.26 ± 0.12 µM; CC50 [3]: > 100 µM
11 | O=CCNC(=O)[C@@H](Cc1c[nH]cn1)NC(=O)[C@H](Cc1c[nH]cn1)NC(=O)C1Cc2ccccc2CN1 (stereo partly drawn) [TRIP 41] (H-[ξTic]H[dH]G-aldehyde) |  |  |  |  |  | > 425 µM | 
12 | CC(C)(C)OC(=O)NCC(=O)N[C@H](Cc1ccccc1)C(=O)N[C@H](C=O)Cc1c[nH]cn1 [TRIP 43] (Boc-Gly-[dF]-His-aldehyde) | > 100 µM | > 20 µM | > 100 µM | 100 μM | >100 μM |  | EC50 [2]: > 100 µM; CC50 [3]: > 100 µM
